Experimental data published in patent US20220304942A1, “TREATMENT OF OBESITY AND RELATED CONDITIONS” (University of Greenwich, priority 2019, published 2022).

Assays:
[1] = test system: Sprague-Dawley rat adipocytes; conditions: cited from earlier work
[2] = test system: male, wild-type C57BL/6 mice; assay: Short term (four-week) dosing of 2,3-butanediol in drinking water to wild-type mice; type: in vivo; conditions: 28 days
Procedure: 2,3-butanediol was then administered over a four-week dosing period to wild-type mice. The 2,3-butanediol was delivered to male, wild-type C57BL/6 mice in drinking water, from 13 to 17 weeks of age. Dose delivery estimation was based on mouse average water consumption. Groups of male mice were either untreated, treated with 60, 250 or 600 mg/kg 2,3-butanediol in their drinking water. Water was changed twice weekly. Weights of mice and food intake were recorded. Urine was collected on day 0 (age 13 weeks, pre-treatment) and at 28 days post-treatment (mice aged 17 weeks) and analysed for 2,3-butanediol.
Blood was collected on day 0 (age 13 weeks) and at 28 days post-treatment (mice aged 17 weeks). Plasma was isolated and analysed. At termination of experiment, epidydimal fat pads (EWAT) were weighed and expressed as EWAT:Body weight ratios, […]

WT mice = assay: Longer term dosing of 2,3-butanediol to WT mice, with washout cohort; type: in vivo
Procedure: Male mice were dosed with 200 mg/kg/day 2,3-butanediol from age 8 weeks to age 29 weeks. Mice were housed 4 to a cage. […], treatment was removed from one cohort, called the ‘washout 6 weeks’. Treatment continued in one cohort, called ‘treatment throughout’. Urine collected 1 week following removal of 2,3-butanediol confirmed the absence of 2,3-butanediol in the washout cohorts. At the end of the experiment blood was collected and plasma isolated and analysed. Mice were culled, and final body weights and epidydimal fat deposits recorded.

[3] = 60, 250 or 600 mg/kg in drinking water
[4] = 250 and 600 mg/kg/day doses in drinking water
[5] = 200 mg/kg/day from age 8 weeks to age 29 weeks, male mice
[6] = 200 mg/kg/day from age 8 weeks, treatment removed at age 22 weeks, 6 week washout on water alone

CC(O)C(C)O (stereo not drawn) [2,3-butanediol]
14C-glucose incorporation into triglyceride glycerol ([1]; at higher concentrations): inhibitor
14C-glucose incorporation into triglyceride fatty acid [1]: potent inhibitor
plasma cholesterol ([2]; 250 mg/kg/day dose in drinking water): significantly reduced
Epididymal white adipose tissue (EWAT) to body weight ratios ([2]; 250 mg/kg/day dose in drinking water, mice aged 13 to 17 weeks): significantly reduced
plasma alanine aminotransferase [2, 3]: No changes
plasma alkaline phosphatase [2, 3]: No changes
plasma aspartate aminotransferase [2, 3]: No changes
Plasma free fatty acids [2, 4]: significantly reduced
Plasma lactate dehydrogenase [2, 4]: significantly reduced
Plasma triglycerides [2, 4]: significantly reduced
fat (EWAT/body weight) (WT mice; [5]): significant reductions
plasma cholesterol (WT mice; [5]): significant reductions
treatment effect on fat (EWAT/body weight) after washout (WT mice; [6]): persistent
treatment effect on plasma cholesterol after washout (WT mice; [6]): persistent
2,3-butanediol in urine after removal of treatment (WT mice; urine collected 1 week following removal of 2,3-butanediol, washout cohorts): absence
